{"source": "patent US6355799B1", "about": "“Substituted benzene compounds, process for their preparation, and herbicidal and defoliant compositions containing them” (ISK Americas Incorporated, priority 1997, dated 2002)", "type_in_all_cases": "in vivo", "key": {"[1]": {"tested_on": "field corn (Zea mays L., var. Dekalb 535, CORN)", "experiment": "Post-emerge test, crop safety", "settings": "phytotoxicity rating 0-100 (0 no damage, 100 complete death), 14 days after application", "in_short": "(§1)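 Plants grown in 10 cm pots of sandy loam mix received acetone-dissolved compounds through a moving flat-fan nozzle. Doses ranged from 15 to 1000 g ai/ha. Pre-emerge pots were seeded one day earlier, post-emerge pots 8–21 days earlier. Fourteen days on, each pot was graded 0–100 for damage.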"}, "[2]": {"tested_on": "upland rice (Oryza sp., var. Tebonnet, RICE)", "experiment": "Post-emerge test, crop safety", "settings": "phytotoxicity rating 0-100 (0 no damage, 100 complete death), 14 days after application", "in_short": "as §1"}, "[3]": {"tested_on": "green foxtail (Setaria viridis, SETVI)", "experiment": "Pre-emerge test, greenhouse herbicide activity screening", "settings": "pre-emerge, rated 14 days after application, 0 = no damage, 100 = complete death", "in_short": "(§2)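 Rating: 0–100 visual injury, 14 DAA. Application: acetone, 187 l/ha, 15–1000 g ai/ha, flat-fan track sprayer with nozzle 40–45 cm above soil or canopy. Post-emerge runs used 0.25% v/v surfactant on 2–3 leaf plants.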"}, "[4]": {"tested_on": "lambsquarters (Chenopodium album, CHEAL)", "experiment": "Pre-emerge test, greenhouse herbicide activity screening", "settings": "pre-emerge, rated 14 days after application, 0 = no damage, 100 = complete death", "in_short": "as §2"}, "[5]": {"tested_on": "barnyardgrass (Echinochloa crus-galli, ECHCG)", "experiment": "Pre-emerge test, greenhouse herbicide activity screening", "settings": "pre-emerge, rated 14 days after application, 0 = no damage, 100 = complete death", "in_short": "as §2"}, "[6]": {"tested_on": "large crabgrass (Digitaria sanguinalis, DIGSA)", "experiment": "Pre-emerge test, greenhouse herbicide activity screening", "settings": "pre-emerge, rated 14 days after application, 0 = no damage, 100 = complete death", "in_short": "as §2"}, "[7]": {"tested_on": "ivyleaf morningglory (Ipomoea hederacea, IPOHE)", "experiment": "Pre-emerge test, greenhouse herbicide activity screening", "settings": "pre-emerge, rated 14 days after application, 0 = no damage, 100 = complete death", "in_short": "as §2"}, "[8]": {"tested_on": "velvetleaf (Abutilon theophrasti, ABUTH)", "experiment": "Pre-emerge test, greenhouse herbicide activity screening", "settings": "pre-emerge, rated 14 days after application, 0 = no damage, 100 = complete death", "in_short": "as §2"}, "[9]": {"tested_on": "sicklepod (Cassia obtusifolia, CASOB)", "experiment": "Pre-emerge test, greenhouse herbicide activity screening", "settings": "pre-emerge, rated 14 days after application, 0 = no damage, 100 = complete death", "in_short": "as §2"}, "[10]": {"tested_on": "johnsongrass (Sorghum halepense, SORHA)", "experiment": "Pre-emerge test, greenhouse herbicide activity screening", "settings": "pre-emerge, rated 14 days after application, 0 = no damage, 100 = complete death", "in_short": "as §2"}, "[11]": {"tested_on": "green foxtail (Setaria viridis, SETVI)", "experiment": "Post-emerge test, greenhouse herbicide activity screening", "settings": "phytotoxicity rating 0-100 (0 no damage, 100 complete death), 14 days after application", "in_short": "(§3)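 Herbicidal damage is scored 0 (none) to 100 (complete plant death) two weeks after a simulated field spray. Rates span 15–1000 g ai/ha, delivered in acetone at 187 l/ha. For post-emergence treatments, plants have 2–3 leaves and the spray carries 0.25% v/v non-ionic surfactant.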"}, "[12]": {"tested_on": "redroot pigweed (Amaranthus retroflexus, AMARE)", "experiment": "Post-emerge test, greenhouse herbicide activity screening", "settings": "phytotoxicity rating 0-100 (0 no damage, 100 complete death), 14 days after application", "in_short": "as §3"}, "[13]": {"tested_on": "lambsquarters (Chenopodium album, CHEAL)", "experiment": "Post-emerge test, greenhouse herbicide activity screening", "settings": "phytotoxicity rating 0-100 (0 no damage, 100 complete death), 14 days after application", "in_short": "as §3"}, "[14]": {"tested_on": "barnyardgrass (Echinochloa crus-galli, ECHCG)", "experiment": "Post-emerge test, greenhouse herbicide activity screening", "settings": "phytotoxicity rating 0-100 (0 no damage, 100 complete death), 14 days after application", "in_short": "as §3"}, "[15]": {"tested_on": "large crabgrass (Digitaria sanguinalis, DIGSA)", "experiment": "Post-emerge test, greenhouse herbicide activity screening", "settings": "phytotoxicity rating 0-100 (0 no damage, 100 complete death), 14 days after application", "in_short": "as §3"}, "[16]": {"tested_on": "ivyleaf morningglory (Ipomoea hederacea, IPOHE)", "experiment": "Post-emerge test, greenhouse herbicide activity screening", "settings": "phytotoxicity rating 0-100 (0 no damage, 100 complete death), 14 days after application", "in_short": "as §3"}, "[17]": {"tested_on": "velvetleaf (Abutilon theophrasti, ABUTH)", "experiment": "Post-emerge test, greenhouse herbicide activity screening", "settings": "phytotoxicity rating 0-100 (0 no damage, 100 complete death), 14 days after application", "in_short": "as §3"}, "[18]": {"tested_on": "sicklepod (Cassia obtusifolia, CASOB)", "experiment": "Post-emerge test, greenhouse herbicide activity screening", "settings": "phytotoxicity rating 0-100 (0 no damage, 100 complete death), 14 days after application", "in_short": "as §3"}, "[19]": {"tested_on": "johnsongrass (Sorghum halepense, SORHA)", "experiment": "Post-emerge test, greenhouse herbicide activity screening", "settings": "phytotoxicity rating 0-100 (0 no damage, 100 complete death), 14 days after application", "in_short": "as §3"}, "[20]": {"tested_on": "field corn (Zea mays L., var. Dekalb 535, CORN)", "experiment": "Pre-emerge test, crop safety", "settings": "pre-emerge, rated 14 days after application, 0 = no damage, 100 = complete death", "in_short": "(§4)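 Compounds in acetone were track-sprayed at 187 l/ha, 15–1000 g ai/ha, onto sandy loam pots. Pre-emerge seeds were sown one day before spraying, with surface watering afterwards. Post-emerge plants were at the 2–3 leaf stage and sprayed with 0.25% v/v non-ionic surfactant. Injury was rated 0–100 at 14 days.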"}, "[21]": {"tested_on": "upland rice (Oryza sp., var. Tebonnet, RICE)", "experiment": "Pre-emerge test, crop safety", "settings": "pre-emerge, rated 14 days after application, 0 = no damage, 100 = complete death", "in_short": "as §4"}, "[22]": {"tested_on": "redroot pigweed (Amaranthus retroflexus, AMARE)", "experiment": "Pre-emerge test, greenhouse herbicide activity screening", "settings": "pre-emerge, rated 14 days after application, 0 = no damage, 100 = complete death", "in_short": "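Sandy loam pots; pre-emerge: sown 1 d pre-spray, surface-watered after, then bottom-watered. Post-emerge: sown 8–21 d before, 2–3 leaf stage, + 0.25% v/v NIS, bottom-watered. Acetone, 187 l/ha track spray, 15–1000 g ai/ha. 0–100 injury score, day 14.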"}}, "data": [{"smiles": "Cn1c(C(F)(F)F)cc(=O)n(-c2c(F)cc(Cl)c(OCC#N)c2N)c1=O", "note": "[Compound 1-18]", "values": [{"measurement": "Post-emerge Herbicidal Activity CORN (crop damage)", "setting": "[1]; 63 g ai/ha", "result": 0}, {"measurement": "Post-emerge Herbicidal Activity CORN (crop damage)", "setting": "[1]; 250 g ai/ha", "result": 0}, {"measurement": "Post-emerge Herbicidal Activity RICE (crop damage)", "setting": "[2]; 63 g ai/ha", "result": 0}, {"measurement": "Post-emerge Herbicidal Activity RICE (crop damage)", "setting": "[2]; 250 g ai/ha", "result": 0}, {"measurement": "Pre-emerge Herbicidal Activity SETVI (phytotoxicity rating, scale 0-100)", "setting": "[3]; 63 g ai/ha", "result": 95}, {"measurement": "Pre-emerge Herbicidal Activity SETVI (phytotoxicity rating, scale 0-100)", "setting": "[3]; 250 g ai/ha", "result": 99}, {"measurement": "Pre-emerge Herbicidal Activity CHEAL (phytotoxicity rating, scale 0-100)", "setting": "[4]; 63 g ai/ha", "result": 100}, {"measurement": "Pre-emerge Herbicidal Activity CHEAL (phytotoxicity rating, scale 0-100)", "setting": "[4]; 250 g ai/ha", "result": 100}, {"measurement": "Pre-emerge Herbicidal Activity ECHCG (phytotoxicity rating, scale 0-100)", "setting": "[5]; 63 g ai/ha", "result": 0}, {"measurement": "Pre-emerge Herbicidal Activity ECHCG (phytotoxicity rating, scale 0-100)", "setting": "[5]; 250 g ai/ha", "result": 80}, {"measurement": "Pre-emerge Herbicidal Activity DIGSA (phytotoxicity rating, scale 0-100)", "setting": "[6]; 63 g ai/ha", "result": 70}, {"measurement": "Pre-emerge Herbicidal Activity DIGSA (phytotoxicity rating, scale 0-100)", "setting": "[6]; 250 g ai/ha", "result": 90}, {"measurement": "Pre-emerge Herbicidal Activity IPOHE (phytotoxicity rating, scale 0-100)", "setting": "[7]; 63 g ai/ha", "result": 100}, {"measurement": "Pre-emerge Herbicidal Activity IPOHE (phytotoxicity rating, scale 0-100)", "setting": "[7]; 250 g ai/ha", "result": 100}, {"measurement": "Pre-emerge Herbicidal Activity ABUTH (phytotoxicity rating, scale 0-100)", "setting": "[8]; 63 g ai/ha", "result": 100}, {"measurement": "Pre-emerge Herbicidal Activity ABUTH (phytotoxicity rating, scale 0-100)", "setting": "[8]; 250 g ai/ha", "result": 100}, {"measurement": "Pre-emerge Herbicidal Activity CASOB (phytotoxicity rating, scale 0-100)", "setting": "[9]; 63 g ai/ha", "result": 70}, {"measurement": "Pre-emerge Herbicidal Activity CASOB (phytotoxicity rating, scale 0-100)", "setting": "[9]; 250 g ai/ha", "result": 100}, {"measurement": "Pre-emerge Herbicidal Activity SORHA (phytotoxicity rating, scale 0-100)", "setting": "[10]; 63 g ai/ha", "result": 70}, {"measurement": "Pre-emerge Herbicidal Activity SORHA (phytotoxicity rating, scale 0-100)", "setting": "[10]; 250 g ai/ha", "result": 100}, {"measurement": "Post-emerge Herbicidal Activity SETVI", "setting": "[11]; 63 g ai/ha", "result": 70}, {"measurement": "Post-emerge Herbicidal Activity SETVI", "setting": "[11]; 250 g ai/ha", "result": 70}, {"measurement": "Post-emerge Herbicidal Activity AMARE", "setting": "[12]; 63 g ai/ha", "result": 70}, {"measurement": "Post-emerge Herbicidal Activity AMARE", "setting": "[12]; 250 g ai/ha", "result": 100}, {"measurement": "Post-emerge Herbicidal Activity CHEAL", "setting": "[13]; 63 g ai/ha", "result": 70}, {"measurement": "Post-emerge Herbicidal Activity CHEAL", "setting": "[13]; 250 g ai/ha", "result": 100}, {"measurement": "Post-emerge Herbicidal Activity ECHCG", "setting": "[14]; 63 g ai/ha", "result": 0}, {"measurement": "Post-emerge Herbicidal Activity ECHCG", "setting": "[14]; 250 g ai/ha", "result": 0}, {"measurement": "Post-emerge Herbicidal Activity DIGSA", "setting": "[15]; 63 g ai/ha", "result": 50}, {"measurement": "Post-emerge Herbicidal Activity DIGSA", "setting": "[15]; 250 g ai/ha", "result": 50}, {"measurement": "Post-emerge Herbicidal Activity IPOHE", "setting": "[16]; 63 g ai/ha", "result": 80}, {"measurement": "Post-emerge Herbicidal Activity IPOHE", "setting": "[16]; 250 g ai/ha", "result": 100}, {"measurement": "Post-emerge Herbicidal Activity ABUTH", "setting": "[17]; 63 g ai/ha", "result": 100}, {"measurement": "Post-emerge Herbicidal Activity ABUTH", "setting": "[17]; 250 g ai/ha", "result": 100}, {"measurement": "Post-emerge Herbicidal Activity CASOB", "setting": "[18]; 63 g ai/ha", "result": 30}, {"measurement": "Post-emerge Herbicidal Activity CASOB", "setting": "[18]; 250 g ai/ha", "result": 95}, {"measurement": "Post-emerge Herbicidal Activity SORHA", "setting": "[19]; 63 g ai/ha", "result": 50}, {"measurement": "Post-emerge Herbicidal Activity SORHA", "setting": "[19]; 250 g ai/ha", "result": 50}, {"measurement": "Pre-emerge crop damage CORN (phytotoxicity rating, scale 0-100)", "setting": "[20]; 63 g ai/ha", "result": 40}, {"measurement": "Pre-emerge crop damage CORN (phytotoxicity rating, scale 0-100)", "setting": "[20]; 250 g ai/ha", "result": 90}, {"measurement": "Pre-emerge crop damage RICE (phytotoxicity rating, scale 0-100)", "setting": "[21]; 63 g ai/ha", "result": 30}, {"measurement": "Pre-emerge crop damage RICE (phytotoxicity rating, scale 0-100)", "setting": "[21]; 250 g ai/ha", "result": 70}, {"measurement": "Pre-emerge Herbicidal Activity AMARE (phytotoxicity rating, scale 0-100)", "setting": "[22]; 63 g ai/ha", "result": 100}, {"measurement": "Pre-emerge Herbicidal Activity AMARE (phytotoxicity rating, scale 0-100)", "setting": "[22]; 250 g ai/ha", "result": 100}]}]}
